Experimental data: article PMC3752336 (Neurochemical research, 2008)

Target: human M3 muscarinic acetylcholine receptor (hM3) (Homo sapiens, UniProt P20309)
Assay: inhibition of [3H]NMS binding, intact CHO cells
Format: cell-based

Sequence of human M3 muscarinic acetylcholine receptor (hM3) (P20309 whole entry): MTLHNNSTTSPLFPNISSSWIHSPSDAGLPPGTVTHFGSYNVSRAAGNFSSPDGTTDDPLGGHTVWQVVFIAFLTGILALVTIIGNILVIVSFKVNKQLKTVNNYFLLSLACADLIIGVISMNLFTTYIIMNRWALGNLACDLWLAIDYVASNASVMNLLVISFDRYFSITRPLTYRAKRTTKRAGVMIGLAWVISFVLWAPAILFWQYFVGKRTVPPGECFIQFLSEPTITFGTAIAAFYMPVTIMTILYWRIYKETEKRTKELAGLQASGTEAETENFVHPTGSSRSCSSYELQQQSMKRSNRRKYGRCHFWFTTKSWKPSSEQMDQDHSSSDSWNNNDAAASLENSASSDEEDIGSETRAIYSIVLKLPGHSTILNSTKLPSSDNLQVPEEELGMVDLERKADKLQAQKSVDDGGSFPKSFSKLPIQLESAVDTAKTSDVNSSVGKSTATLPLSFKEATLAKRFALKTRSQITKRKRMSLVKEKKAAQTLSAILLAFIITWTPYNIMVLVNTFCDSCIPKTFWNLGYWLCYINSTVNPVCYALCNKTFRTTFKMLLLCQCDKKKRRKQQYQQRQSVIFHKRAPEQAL

Q: With `CCCCCCOc1nsnc1C1=CCCN(C)C1` [Xanomeline] as the molecule, how does the IC50 read?
A: 79.4 nM
